In ChEMBL document CHEMBL4818987, “Recent advances of podophyllotoxin/epipodophyllotoxin hybrids in anticancer activity, mode of action, and structure-activity relationship: An update (2010-2020)” (Eur J Med Chem, 2020):
pIC50: −log10 of the molar value.

Legend:
[1] = Resistance index, ratio of IC50 for human K562/ADR cells to IC50 for human K562 cells; type: functional
[2] = tested on: K562/Adr; assay: Potency index, ratio of doxorubicin IC50 to compound IC50 for human K562/ADR cells; type: functional
[3] = tested on: K562; assay: Cytotoxicity against human K562 cells incubated for 72 hrs by CCK8 assay; type: functional, cell-based; conditions: K562, 72 h
[4] = tested on: K562; assay: Potency index, ratio of doxorubicin IC50 to compound IC50 for human K562 cells; type: functional
[5] = tested on: K562/Adr; assay: Cytotoxicity against human K562/ADR cells incubated for 72 hrs by CCK8 assay; type: functional, cell-based
[6] = tested on: HeLa; assay: Antiproliferative activity against human HeLa cells by MTT assay; type: functional, cell-based
[7] = tested on: K562/A02; assay: Antiproliferative activity against human K562/A02 cells by MTT assay; type: functional, cell-based
[8] = tested on: A549; assay: Antiproliferative activity against human A549 cells incubated for 48 hrs by MTT assay; type: functional, cell-based; conditions: A549, 48 h
[9] = tested on: MCF7; assay: Antiproliferative activity against human MCF7 cells incubated for 48 hrs by MTT assay; type: functional, cell-based; conditions: MCF7, 48 h
[10] = tested on: HeLa; assay: Antiproliferative activity against human HeLa cells incubated for 48 hrs by MTT assay; type: functional, cell-based
[11] = tested on: BGC-823; assay: Antiproliferative activity against human BGC-823 cells incubated for 48 hrs by MTT assay; type: functional, cell-based; conditions: BGC-823, 48 h
[12] = tested on: Huh-7; assay: Antiproliferative activity against human Huh7 cells incubated for 48 hrs by MTT assay; type: functional, cell-based; conditions: Huh-7, 48 h
[13] = tested on: HepG2; assay: Antiproliferative activity against human HepG2 cells incubated for 48 hrs by MTT assay; type: functional, cell-based; conditions: HepG2, 48 h
[14] = tested on: L02; assay: Cytotoxicity against human HL7702 cells incubated for 48 hrs by MTT assay; type: cell-based; conditions: L02, 48 h
[15] = tested on: K562/VCR; assay: Cytotoxicity against human K562/VCR cells incubated for 72 hrs by CCK8 assay; type: functional, cell-based
[16] = tested on: K562/Adr; assay: Antiproliferative activity against human K562/ADR cells incubated for 72 hrs by CCK8 assay; type: functional, cell-based
[17] = tested on: K562; assay: Potency index, ratio of etoposide IC50 to test compound IC50 for antiproliferative activity against human K562 cells; type: functional
[18] = tested on: K562; assay: Antiproliferative activity against human K562 cells incubated for 72 hrs by CCK8 assay; type: functional, cell-based; conditions: K562, 72 h
[19] = tested on: K562/Adr; assay: Potency index, ratio of etoposide IC50 to test compound IC50 for antiproliferative activity against human K562/ADM cells; type: functional
[20] = tested on: A549; assay: Antiproliferative activity against human A549 cells incubated for 72 hrs by MTT assay; type: functional, cell-based; conditions: A549, 72 h
[21] = tested on: HepG2; assay: Antiproliferative activity against human HepG2 cells incubated for 72 hrs by MTT assay; type: functional, cell-based; conditions: HepG2, 72 h
[22] = tested on: CT26; assay: Antiproliferative activity against […] cells incubated for 72 hrs by MTT assay; type: functional, cell-based; conditions: Mus musculus, CT26, 72 h
[23] = tested on: SK-OV-3; assay: Antiproliferative activity against human SK-OV-3 cells incubated for 72 hrs by MTT assay; type: functional, cell-based; conditions: SK-OV-3, 72 h
[24] = tested on: B16-F10; assay: Antiproliferative activity against mouse B16/F10 cells incubated for 72 hrs by MTT assay; type: functional, cell-based; conditions: B16-F10, 72 h
[25] = tested on: HeLa; assay: Antiproliferative activity against human HeLa cells incubated for 72 hrs by MTT assay; type: functional, cell-based
[26] = tested on: MCF7; assay: Antiproliferative activity against human MCF7 cells incubated for 72 hrs by MTT assay; type: functional, cell-based; conditions: MCF7, 72 h
[27] = tested on: HepG2; assay: Antiproliferative activity against human HepG2 cells incubated for 24 hrs by MTT assay; type: functional, cell-based; conditions: HepG2, 24 h
[28] = tested on: HeLa; assay: Antiproliferative activity against human HeLa cells incubated for 24 hrs by MTT assay; type: functional, cell-based
[29] = tested on: L02; assay: Cytotoxicity against human L02 cells; type: cell-based
[30] = tested on: A549; assay: Antiproliferative activity against human A549 cells incubated for 24 hrs by MTT assay; type: functional, cell-based; conditions: A549, 24 h
[31] = tested on: MCF7; assay: Antiproliferative activity against human MCF7 cells incubated for 24 hrs by MTT assay; type: functional, cell-based; conditions: MCF7, 24 h
[32] = tested on: MCF7; assay: Cytotoxicity against human MCF7 cells by MTT assay; type: functional, cell-based
[33] = tested on: MKN-45; assay: Antiproliferative activity against human MKN-45 cells incubated for 72 hrs by MTT assay; type: functional, cell-based; conditions: Homo sapiens, MKN-45, 72 h
[34] = tested on: BGC-823; assay: Antiproliferative activity against human BGC-823 cells incubated for 72 hrs by MTT assay; type: functional, cell-based; conditions: BGC-823, 72 h
[35] = tested on: Calu-1; assay: Antiproliferative activity against human Calu-1 cells incubated for 24 hrs by MTT assay; type: functional, cell-based; conditions: Calu-1, 24 h
[36] = tested on: Vero; assay: Cytotoxicity against African green monkey Vero cells; type: cell-based; conditions: Chlorocebus sabaeus
[37] = tested on: K562/A02; assay: Cytotoxicity against human K562/A02 cells by SRB assay; type: functional, cell-based

COc1cc([C@@H]2c3cc4c(cc3[C@@H](OC(=O)/C=C/c3ccccc3)[C@H]3COC(=O)[C@H]23)OCO4)cc(OC)c1OC
Ratio IC50 [1]: 1.1
Ratio IC50 [2]: 2.2
pIC50 [3]: 7.96
Ratio IC50 [4]: 2.2
pIC50 [5]: 7.96

COc1cc([C@@H]2c3cc4c(cc3[C@@H](NCc3cc5cc(F)ccc5[nH]3)[C@H]3COC(=O)[C@H]23)OCO4)cc(OC)c1OC
pIC50 [6]: 7.00
pIC50 [7]: 7.00

COc1cc([C@@H]2c3cc4c(cc3[C@@H](Nc3ncccc3C)[C@H]3COC(=O)[C@H]23)OCO4)cc(OC)c1OC
pIC50 [8]: 7.22
pIC50 [9]: 7.22
pIC50 [10]: 7.22
pIC50 [11]: 7.22
pIC50 [12]: 7.22

COc1cc([C@@H]2c3cc4c(cc3[C@@H](Sc3ncnc5nc[nH]c35)[C@H]3COC(=O)[C@H]23)OCO4)cc(OC)c1OC
pIC50 [8]: 6.52
pIC50 [13]: 6.52
pIC50 [14]: 6.52
pIC50 [11]: 6.52

COc1cc([C@@H]2c3cc4c(cc3[C@H](OC(=O)c3ccc5cc[nH]c5c3)[C@H]3COC(=O)[C@H]23)OCO4)cc(OC)c1OC
pIC50 [15]: 7.09
pIC50 [3]: 7.09

COc1ccc2[nH]c(CN[C@@H]3c4cc5c(cc4[C@@H](c4cc(OC)c(OC)c(OC)c4)[C@H]4C(=O)OC[C@@H]43)OCO5)cc2c1
pIC50 [6]: 7.00
pIC50 [7]: 7.00

COc1cc([C@@H]2c3cc4c(cc3[C@H](OCC(=O)N3C(=O)C(=O)c5ccc(Cl)cc53)[C@H]3COC(=O)[C@H]23)OCO4)cc(OC)c1OC
pIC50 [16]: 7.72
Ratio IC50 [17]: 8.8
pIC50 [18]: 7.72
Ratio IC50 [19]: 8.8

COc1cc([C@@H]2c3cc4c(cc3[C@H](OC(=O)Cc3c[nH]c5ccccc35)[C@H]3COC(=O)[C@H]23)OCO4)cc(OC)c1OC
pIC50 [15]: 6.69
pIC50 [3]: 7.37

COc1cc([C@@H]2c3cc4c(cc3[C@@H](Nc3ncccc3C)[C@H]3COC(=O)[C@H]23)OCO4)cc(OC)c1O
pIC50 [8]: 7.22
pIC50 [9]: 7.22
pIC50 [10]: 7.22
pIC50 [11]: 7.22
pIC50 [12]: 7.22

COc1ccc(-c2coc3cc(OCCCC(=O)O[C@@H]4c5cc6c(cc5[C@@H](c5cc(OC)c(OC)c(OC)c5)[C@H]5C(=O)OC[C@@H]54)OCO6)ccc3c2=O)cc1
pIC50 [20]: 6.67
pIC50 [21]: 6.67
pIC50 [22]: 6.67
pIC50 [23]: 6.67
pIC50 [24]: 6.67
pIC50 [25]: 6.67
pIC50 [26]: 6.67

COc1ccc(-c2nnc(SCC(=O)O[C@H]3c4cc5c(cc4[C@@H](c4cc(OC)c(OC)c(OC)c4)[C@H]4C(=O)OC[C@@H]43)OCO5)o2)cc1
pIC50 [27]: 5.60
pIC50 [28]: 5.60
pIC50 [29]: 4.03
pIC50 [30]: 5.60
pIC50 [31]: 5.60

COc1cc([C@@H]2c3cc4c(cc3[C@H](OCC(=O)N3C(=O)C(=O)c5c(Br)cccc53)[C@H]3COC(=O)[C@H]23)OCO4)cc(OC)c1OC
pIC50 [16]: 7.72
Ratio IC50 [17]: 8.8
pIC50 [18]: 7.72
Ratio IC50 [19]: 8.8

COc1cc([C@@H]2c3cc4c(cc3[C@H](OC(=O)c3ccc5[nH]ccc5c3)[C@H]3COC(=O)[C@H]23)OCO4)cc(OC)c1OC
pIC50 [15]: 7.09
pIC50 [3]: 7.09

COc1ccc(/C=C/C(=O)O[C@@H]2c3cc4c(cc3[C@@H](c3cc(OC)c(OC)c(OC)c3)[C@H]3C(=O)OC[C@@H]32)OCO4)cc1OC
Ratio IC50 [1]: 1.1
Ratio IC50 [2]: 2.2
pIC50 [3]: 7.96
Ratio IC50 [4]: 2.2
pIC50 [5]: 7.96

COc1ccc(-c2coc3cc(OCCCCC(=O)O[C@@H]4c5cc6c(cc5[C@@H](c5cc(OC)c(OC)c(OC)c5)[C@H]5C(=O)OC[C@@H]54)OCO6)ccc3c2=O)cc1
pIC50 [20]: 6.67
pIC50 [21]: 6.67
pIC50 [22]: 6.67
pIC50 [23]: 6.67
pIC50 [24]: 6.67
pIC50 [25]: 6.67
pIC50 [26]: 6.67

COc1cc([C@@H]2c3cc4c(cc3[C@@H](Sc3nc(N)nc5nc[nH]c35)[C@H]3COC(=O)[C@H]23)OCO4)cc(OC)c1OC
pIC50 [8]: 6.52
pIC50 [13]: 6.52
pIC50 [14]: 6.52
pIC50 [11]: 6.52

COc1cc([C@@H]2c3cc4c(cc3[C@@H](OC(=O)/C=C/c3ccc([N+](=O)[O-])cc3)[C@H]3COC(=O)[C@H]23)OCO4)cc(OC)c1OC
Ratio IC50 [1]: 1.1
Ratio IC50 [2]: 2.2
pIC50 [3]: 7.96
Ratio IC50 [4]: 2.2
pIC50 [5]: 7.96

COc1cc([C@@H]2c3cc4c(cc3[C@@H](OCc3cn([C@@H]5O[C@H](COC(C)=O)[C@H](OC(C)=O)[C@H](OC(C)=O)[C@H]5OC(C)=O)nn3)[C@H]3COC(=O)[C@H]23)OCO4)cc(OC)c1OC
pIC50 [32]: 5.90

COc1cc([C@@H]2c3cc4c(cc3[C@H](OC(=O)CSc3nnc(-c5ccc(Br)cc5)o3)[C@H]3COC(=O)[C@H]23)OCO4)cc(OC)c1OC
pIC50 [27]: 5.60
pIC50 [28]: 5.60
pIC50 [29]: 4.10
pIC50 [30]: 5.60
pIC50 [31]: 5.60

COc1ccc(-c2coc3cc(OCC(=O)O[C@@H]4c5cc6c(cc5[C@@H](c5cc(OC)c(OC)c(OC)c5)[C@H]5C(=O)OC[C@@H]54)OCO6)ccc3c2=O)cc1
pIC50 [20]: 6.67
pIC50 [21]: 6.67
pIC50 [22]: 6.67
pIC50 [23]: 6.67
pIC50 [24]: 6.67
pIC50 [25]: 6.67
pIC50 [26]: 6.67

COc1cc([C@@H]2c3cc4c(cc3[C@@H](OC(=O)/C=C/c3ccco3)[C@H]3COC(=O)[C@H]23)OCO4)cc(OC)c1OC
Ratio IC50 [1]: 1.1
Ratio IC50 [2]: 2.2
pIC50 [3]: 7.96
Ratio IC50 [4]: 2.2
pIC50 [5]: 7.96

COc1ccc2c(c1)cc(/C=N/[C@@H]1c3cc4c(cc3[C@@H](c3cc(OC)c(OC)c(OC)c3)[C@H]3C(=O)OC[C@@H]31)OCO4)n2Cc1ccccc1F
pIC50 [6]: 6.19

CC1=C(/C=C/C(C)=C/C=C/C(C)=C/C(O)O)C(C)(C)CCC1
pIC50 [33]: 4.05
pIC50 [34]: 4.08

COc1ccc(/C=C\c2cc(OC)c(OC)c(OC)c2)cc1O [COMBRETASTATIN A4]
pIC50 [35]: 5.56
pIC50 [27]: 5.46
pIC50 [28]: 5.56
pIC50 [29]: 5.37
pIC50 [36]: 5.59
pIC50 [30]: 5.56
pIC50 [31]: 5.46

COc1cccc2c1C(=O)c1c(O)c3c(c(O)c1C2=O)C[C@@](O)(C(=O)CO)C[C@@H]3O[C@H]1C[C@H](N)[C@H](O)[C@H](C)O1 [DOXORUBICIN]
GI50 [37]: 14300 nM
pIC50 [5]: 6.66
